Measured values reported in ChEMBL document CHEMBL3407452, “Linear and branched alkyl-esters and amides of gallic acid and other (mono-, di- and tri-) hydroxy benzoyl derivatives as promising anti-HCV inhibitors” (Eur J Med Chem, 2015).
Calls of active or inactive are those of the source. The calls are words filed in the database; no cut-off is given here.

Tested on: Feline coronavirus
Experiment: Antiviral activity against feline coronavirus
Assay type: functional, organism-based
Conditions: not given

Structure (SMILES) | Activity
O=C(OCCCCCCOC(=O)c1cc(O)c(O)c(O)c1)c1cc(O)c(O)c(O)c1 | inactive
CCOC(=O)c1cc(O)c(O)c(O)c1 [ETHYLGALLATE] | inactive
O=C(OCCCCCCCCOC(=O)c1cc(O)c(O)c(O)c1)c1cc(O)c(O)c(O)c1 | inactive
CCCCOC(=O)c1cc(O)c(O)c(O)c1 [BUTYL GALLATE] | inactive

Tested on: Chikungunya virus
Experiment: Antiviral activity against chikungunya virus
Assay type: functional
Conditions: not given

Structure (SMILES) | Activity
O=C(OCCCCCCOC(=O)c1cc(O)c(O)c(O)c1)c1cc(O)c(O)c(O)c1 | inactive
CCOC(=O)c1cc(O)c(O)c(O)c1 [ETHYLGALLATE] | inactive
O=C(OCCCCCCCCOC(=O)c1cc(O)c(O)c(O)c1)c1cc(O)c(O)c(O)c1 | inactive
CCCCOC(=O)c1cc(O)c(O)c(O)c1 [BUTYL GALLATE] | inactive

Tested on: Human respirovirus 3
Experiment: Antiviral activity against human parainfluenza virus 3
Assay type: functional, organism-based
Conditions: not given

Structure (SMILES) | Activity
O=C(OCCCCCCOC(=O)c1cc(O)c(O)c(O)c1)c1cc(O)c(O)c(O)c1 | inactive
CCOC(=O)c1cc(O)c(O)c(O)c1 [ETHYLGALLATE] | inactive
O=C(OCCCCCCCCOC(=O)c1cc(O)c(O)c(O)c1)c1cc(O)c(O)c(O)c1 | inactive
CCCCOC(=O)c1cc(O)c(O)c(O)c1 [BUTYL GALLATE] | inactive

Tested on: Human immunodeficiency virus 2
Experiment: Antiviral activity against HIV2 ROD infected in human CEM cells assessed as reduction in virus-induced cytopathicity after 4 to 5 days by microscopy based syncytium cell formation assay
Assay type: functional, organism-based, ISOLATE ROD, CCRF-CEM
Conditions: Human immunodeficiency virus 2, ISOLATE ROD, CCRF-CEM; read-out: EC50

Structure (SMILES) | EC50 [µM]
O=C(OCCCCCCOC(=O)c1cc(O)c(O)c(O)c1)c1cc(O)c(O)c(O)c1 | ≥ 10
CCOC(=O)c1cc(O)c(O)c(O)c1 [ETHYLGALLATE] | > 10
O=C(OCCCCCCCCOC(=O)c1cc(O)c(O)c(O)c1)c1cc(O)c(O)c(O)c1 | > 10
CCCCOC(=O)c1cc(O)c(O)c(O)c1 [BUTYL GALLATE] | > 10

Tested on: Coxsackievirus B4
Experiment: Antiviral activity against human coxsackievirus B4
Assay type: functional, organism-based
Conditions: not given

Structure (SMILES) | Activity
O=C(OCCCCCCOC(=O)c1cc(O)c(O)c(O)c1)c1cc(O)c(O)c(O)c1 | inactive
CCOC(=O)c1cc(O)c(O)c(O)c1 [ETHYLGALLATE] | inactive
O=C(OCCCCCCCCOC(=O)c1cc(O)c(O)c(O)c1)c1cc(O)c(O)c(O)c1 | inactive
CCCCOC(=O)c1cc(O)c(O)c(O)c1 [BUTYL GALLATE] | inactive

Tested on: Vesicular stomatitis virus
Experiment: Antiviral activity against vesicular stomatitis virus
Assay type: functional, organism-based
Conditions: not given

Structure (SMILES) | Activity
O=C(OCCCCCCOC(=O)c1cc(O)c(O)c(O)c1)c1cc(O)c(O)c(O)c1 | inactive
CCOC(=O)c1cc(O)c(O)c(O)c1 [ETHYLGALLATE] | inactive
O=C(OCCCCCCCCOC(=O)c1cc(O)c(O)c(O)c1)c1cc(O)c(O)c(O)c1 | inactive
CCCCOC(=O)c1cc(O)c(O)c(O)c1 [BUTYL GALLATE] | inactive

Tested on: not listed separately
Experiment: Cytotoxicity against human CEM cells assessed as inhibition of cell proliferation
Assay type: cell-based
Conditions: CEM cells (CCRF-CEM)

Structure (SMILES) | CC50 [µM]
O=C(OCCCCCCOC(=O)c1cc(O)c(O)c(O)c1)c1cc(O)c(O)c(O)c1 | 22
CCOC(=O)c1cc(O)c(O)c(O)c1 [ETHYLGALLATE] | 23
O=C(OCCCCCCCCOC(=O)c1cc(O)c(O)c(O)c1)c1cc(O)c(O)c(O)c1 | 13
CCCCOC(=O)c1cc(O)c(O)c(O)c1 [BUTYL GALLATE] | 55

Tested on: Felid alphaherpesvirus 1
Experiment: Antiviral activity against feline herpesvirus
Assay type: functional, organism-based
Conditions: not given

Structure (SMILES) | Activity
O=C(OCCCCCCOC(=O)c1cc(O)c(O)c(O)c1)c1cc(O)c(O)c(O)c1 | inactive
CCOC(=O)c1cc(O)c(O)c(O)c1 [ETHYLGALLATE] | inactive
O=C(OCCCCCCCCOC(=O)c1cc(O)c(O)c(O)c1)c1cc(O)c(O)c(O)c1 | inactive
CCCCOC(=O)c1cc(O)c(O)c(O)c1 [BUTYL GALLATE] | inactive

Tested on: Influenza A virus H3N2
Experiment: Antiviral activity against influenza A virus H3N2
Assay type: functional, organism-based
Conditions: not given

Structure (SMILES) | Activity
O=C(OCCCCCCOC(=O)c1cc(O)c(O)c(O)c1)c1cc(O)c(O)c(O)c1 | inactive
CCOC(=O)c1cc(O)c(O)c(O)c1 [ETHYLGALLATE] | inactive
O=C(OCCCCCCCCOC(=O)c1cc(O)c(O)c(O)c1)c1cc(O)c(O)c(O)c1 | inactive
CCCCOC(=O)c1cc(O)c(O)c(O)c1 [BUTYL GALLATE] | inactive

Tested on: Hepatitis C virus
Experiment: Antiviral activity against HCV genotype 1b I389luc-ubi-neo/NS3-3'/5.1 replicons infected in human Huh5-2 HCV subgenomic replicon-containing cells assessed as reduction in virus replication after 3 days by luciferase reporter gene assay
Assay type: functional, Hepacivirus hominis
Conditions: Hepatitis C virus, genotype 1b, Huh-5-2, 72 h

Structure (SMILES) | EC90 [µM]
CCOC(=O)c1cc(O)c(O)c(O)c1 [ETHYLGALLATE] | > 45
O=C(OCCCCCCCCOC(=O)c1cc(O)c(O)c(O)c1)c1cc(O)c(O)c(O)c1 | 55
CCCCOC(=O)c1cc(O)c(O)c(O)c1 [BUTYL GALLATE] | > 29

Same assay, conditions: Hepatitis C virus, genotype 1b, Huh-5-2, 72 h; read-out: EC50

Structure (SMILES) | EC50 [µM]
O=C(OCCCCCCOC(=O)c1cc(O)c(O)c(O)c1)c1cc(O)c(O)c(O)c1 | 16
CCOC(=O)c1cc(O)c(O)c(O)c1 [ETHYLGALLATE] | 19
O=C(OCCCCCCCCOC(=O)c1cc(O)c(O)c(O)c1)c1cc(O)c(O)c(O)c1 | 17
CCCCOC(=O)c1cc(O)c(O)c(O)c1 [BUTYL GALLATE] | 13

Tested on: Influenza A virus
Experiment: Antiviral activity against influenza A virus (H1N1)
Assay type: functional, organism-based
Conditions: not given

Structure (SMILES) | Activity
O=C(OCCCCCCOC(=O)c1cc(O)c(O)c(O)c1)c1cc(O)c(O)c(O)c1 | inactive
CCOC(=O)c1cc(O)c(O)c(O)c1 [ETHYLGALLATE] | inactive
O=C(OCCCCCCCCOC(=O)c1cc(O)c(O)c(O)c1)c1cc(O)c(O)c(O)c1 | inactive
CCCCOC(=O)c1cc(O)c(O)c(O)c1 [BUTYL GALLATE] | inactive

Tested on: Human immunodeficiency virus 1
Experiment: Antiviral activity against HIV1 3B infected in human CEM cells assessed as reduction in virus-induced cytopathicity after 4 to 5 days by microscopy based syncytium cell formation assay
Assay type: functional, organism-based, CCRF-CEM
Conditions: Human immunodeficiency virus 1, 3B, CCRF-CEM; read-out: EC50

Structure (SMILES) | EC50 [µM]
O=C(OCCCCCCOC(=O)c1cc(O)c(O)c(O)c1)c1cc(O)c(O)c(O)c1 | ≥ 10
CCOC(=O)c1cc(O)c(O)c(O)c1 [ETHYLGALLATE] | > 10
O=C(OCCCCCCCCOC(=O)c1cc(O)c(O)c(O)c1)c1cc(O)c(O)c(O)c1 | > 10
CCCCOC(=O)c1cc(O)c(O)c(O)c1 [BUTYL GALLATE] | > 10

Tested on: not listed separately
Experiment: Cytotoxicity against human Huh5-2 cells after 72 hrs by MTS assay
Assay type: cell-based, Huh-5-2
Conditions: not given

Structure (SMILES) | CC50 at 72 h [µM]
O=C(OCCCCCCOC(=O)c1cc(O)c(O)c(O)c1)c1cc(O)c(O)c(O)c1 | > 50
CCOC(=O)c1cc(O)c(O)c(O)c1 [ETHYLGALLATE] | 45
O=C(OCCCCCCCCOC(=O)c1cc(O)c(O)c(O)c1)c1cc(O)c(O)c(O)c1 | 80
CCCCOC(=O)c1cc(O)c(O)c(O)c1 [BUTYL GALLATE] | 29

Tested on: Respiratory syncytial virus
Experiment: Antiviral activity against RSV
Assay type: functional, organism-based
Conditions: not given

Structure (SMILES) | Activity
O=C(OCCCCCCOC(=O)c1cc(O)c(O)c(O)c1)c1cc(O)c(O)c(O)c1 | inactive
CCOC(=O)c1cc(O)c(O)c(O)c1 [ETHYLGALLATE] | inactive
O=C(OCCCCCCCCOC(=O)c1cc(O)c(O)c(O)c1)c1cc(O)c(O)c(O)c1 | inactive
CCCCOC(=O)c1cc(O)c(O)c(O)c1 [BUTYL GALLATE] | inactive

Tested on: Vaccinia virus
Experiment: Antiviral activity against vaccinia virus
Assay type: functional, organism-based
Conditions: Orthopoxvirus vaccinia

Structure (SMILES) | Activity
O=C(OCCCCCCOC(=O)c1cc(O)c(O)c(O)c1)c1cc(O)c(O)c(O)c1 | inactive
CCOC(=O)c1cc(O)c(O)c(O)c1 [ETHYLGALLATE] | inactive
O=C(OCCCCCCCCOC(=O)c1cc(O)c(O)c(O)c1)c1cc(O)c(O)c(O)c1 | inactive
CCCCOC(=O)c1cc(O)c(O)c(O)c1 [BUTYL GALLATE] | inactive

Tested on: Punta Toro virus
Experiment: Antiviral activity against punta toro virus
Assay type: functional, organism-based
Conditions: not given

Structure (SMILES) | Activity
O=C(OCCCCCCOC(=O)c1cc(O)c(O)c(O)c1)c1cc(O)c(O)c(O)c1 | inactive
CCOC(=O)c1cc(O)c(O)c(O)c1 [ETHYLGALLATE] | inactive
O=C(OCCCCCCCCOC(=O)c1cc(O)c(O)c(O)c1)c1cc(O)c(O)c(O)c1 | inactive
CCCCOC(=O)c1cc(O)c(O)c(O)c1 [BUTYL GALLATE] | inactive

Tested on: Reovirus sp.
Experiment: Antiviral activity against reovirus
Assay type: functional, organism-based
Conditions: not given

Structure (SMILES) | Activity
O=C(OCCCCCCOC(=O)c1cc(O)c(O)c(O)c1)c1cc(O)c(O)c(O)c1 | inactive
CCOC(=O)c1cc(O)c(O)c(O)c1 [ETHYLGALLATE] | inactive
O=C(OCCCCCCCCOC(=O)c1cc(O)c(O)c(O)c1)c1cc(O)c(O)c(O)c1 | inactive
CCCCOC(=O)c1cc(O)c(O)c(O)c1 [BUTYL GALLATE] | inactive

Tested on: Sindbis virus
Experiment: Antiviral activity against sindbis virus
Assay type: functional, organism-based
Conditions: not given

Structure (SMILES) | Activity
O=C(OCCCCCCOC(=O)c1cc(O)c(O)c(O)c1)c1cc(O)c(O)c(O)c1 | inactive
CCOC(=O)c1cc(O)c(O)c(O)c1 [ETHYLGALLATE] | inactive
O=C(OCCCCCCCCOC(=O)c1cc(O)c(O)c(O)c1)c1cc(O)c(O)c(O)c1 | inactive
CCCCOC(=O)c1cc(O)c(O)c(O)c1 [BUTYL GALLATE] | inactive
